Assay results taken from US8962001B2, “Nuclease inhibitors and methods for their use” (Wisconsin Alumni Research Foundation, priority 2004, dated 2015).

Tests used:
ribonuclease A = target: T1, ribonuclease A (Bos taurus, UniProt P61823); assay: Inhibition of RNase A catalysis, fluorescence assay with 6-FAM~dArUdAdA~6-TAMRA; format: biochemical; conditions: solutions of low salt concentration
T1 construct: made in house
T1 sequence (P61823 27-150): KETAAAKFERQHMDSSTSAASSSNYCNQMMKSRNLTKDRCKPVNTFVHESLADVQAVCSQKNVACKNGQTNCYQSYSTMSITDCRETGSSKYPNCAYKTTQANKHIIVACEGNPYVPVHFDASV
Protocol: Inhibition of RNase A Catalysis—Inhibition of ribonucleolytic activity was measured by using either poly(C) or a fluorogenic substrate. The total cytidyl concentration of poly(C) was quantitated using ε=6,200 M^−1 cm^−1 at 268 nm (Yakovlev et al., 1992). The cleavage of poly(C) was monitored by the decrease in ultraviolet hypochromicity. The Δε value for this reaction calculated from the difference in molar absorptivity of the polymeric substrate and the mononucleotide cyclic phosphate product was 2,380 M^−1 cm^−1 at 250 nm (delCardayre and Raines, 1994). Assays were performed at 25° C. in 50 mM imidazole-HCl buffer, pH 6.0, containing NaCl (0.10 M), poly(C) (10 μM-1.5 mM), OVS (0-1.43 μM), and enzyme (1.0 nM).
Molar values of OVS were calculated by using the number average molecular mass (Mn) of 2,000 g/mol (value provided by the manufacturer and said to be measured by GPC, Polysciences.) It is possible that an oligomer of this size could bind two enzymes. Thus, the actual Ki values could be 2-fold higher. Kinetic parameters were determined from initial velocity data with the program DELTA-GRAPH 4.0 (DeltaPoint, Monterey, Calif.). For the fluorescence assay, the inhibition of ribonucleolytic activity was assessed at 25° C. in 2.0 ml of 50 mM imidazole-HCl buffer, pH 6.0, containing NaCl (0-0.25 M), 6-FAM˜dArUdAdA˜6-TAMRA (60 nM), and RNase A ([…]) as described previously (Kelemen et al., 1999; Park et al., 2001). Fluorescence (F) was measured using 493 and 515 nm as the excitation and emission wavelengths, respectively. The value of ΔF/Δt was measured for 3 min after the addition of RNase A. An aliquot of inhibitor (I) dissolved in the dissolved in the assay buffer was added next, and ΔF/Δt was measured in the presence of the inhibitor for 3 min. The concentration of inhibitor in the assay was doubled repeatedly in 3-min intervals. Excess RNase A was then added to the mixture to ensure that […] substrate had been cleaved prior to completion of the inhibition assay. Apparent changes in ribonucleolytic activity due to dilution were corrected by comparing values to an assay in which aliquots of buffer were added to the assay. Values of Ki were determined by non-linear least squares regression analysis of data fitted to Equation 1 (Kelemen et al., 1999; Park et al., 2001). ΔF/Δt=(ΔF/Δt)0(Ki/(Ki+[I])) (Eq. 1)
At 0 M NaCl, the enzyme concentration ([E] total) caused a significant depletion in inhibitor concentration, thus the data were fitted to Equation 2, which describes tight-binding inhibition (Henderson, 1972). ΔF/Δt=((ΔF/Δt)0/2[E]total){[(Ki+[I]−[E]total]^2+4Ki[E]total)^1/2−(Ki+[I]−[E]total)} (Eq. 2) In Equations 1 and 2, ( )F/ )t)0 was the ribonucleolytic activity prior to inhibitor addition.

RNase A = target: T2, RNase A (Bos taurus, UniProt P61823); conditions: similar buffer conditions with 0.10 M NaCl; cited from earlier work
T2 sequence (P61823 27-150): T1 sequence (P61823 27-150)

| SMILES | inhibition of RNase A by buffer synthesis byproducts (words) (ribonuclease A) | inhibition of RNase A by buffer synthesis byproducts (words) (ribonuclease A; listed as 2-OH ethanesulfonic acid) | inhibition of RNase A by buffer synthesis byproducts (words) (ribonuclease A; listed as diethanesulfonic acid) | Ki (RNase A) [nM] | inhibition of RNase A by buffer synthesis byproducts (words) (ribonuclease A; listed as vinyl sulfonic acid) |
| --- | --- | --- | --- | --- | --- |
| O=S(=O)(O)CCO [2-hydroxyethanesulfonic acid] | Neither of these species was found to be a potent inhibitor | None of these three materials was found, when tested, to exhibit inhibitory activity |  |  |  |
| O=S(=O)(O)CCOCCS(=O)(=O)O [Diethanesulfonic acid ether, diethanesulfonic acid ether] | failed to inhibit RNase A |  | None of these three materials was found, when tested, to exhibit inhibitory activity |  |  |
| Nc1ncnc2c1ncn2[C@@H]1O[C@H](COP(=O)(O)OP(=O)(O)O[C@H]2C[C@H](n3ccc(=O)[nH]c3=O)O[C@@H]2COP(=O)(O)O)[C@@H](OP(=O)(O)O)[C@H]1O [pdUppA-3′-p] |  |  |  | ~120 |  |
| C=CS(=O)(=O)O [vinylsulfonic acid] | Neither of these species was found to be a potent inhibitor |  |  |  | None of these three materials was found, when tested, to exhibit inhibitory activity |
